Source: patent publication US20010046498A1, “Chimeric prostate-homing peptides with pro-apoptotic activity” (priority 2000, published 2001)
Square brackets hold non-standard residues; d marks the D form. Ends that are not written are not given here. Peptide text beside a SMILES is read from it.

Columns and labels:
[1] = system: dermal microvessel endothelial cells; test: Mitochondrial morphology of proliferating DMECs (MitoTracker Red / DAPI); format: cell-based, human; settings: 60 μM peptide, 24 hours
Experimental: Mitochondrial morphology of dermal microvessel endothelial cells was assessed in proliferating cells after treatment with 60 μM HPP-1, […]-GG-D(KLAKLAK)2 or untargeted D(KLAKLAK)2 as follows. Dermal microvessel endothelial cells were stained after 24 and 72 hours treatment with peptide by incubation for 30 min at 37° C. with 100 nM mitochondrial stain MitoTracker Red™ (Molecular Probes, Inc., Eugene Oreg.) and 500 nM of the nuclear stain DAPI (Molecular Probes, Inc.). Mitochondria were subsequently visualized using fluorescence microscopy (100×) under an inverted microscope using a triple wavelength filter set (Nikon).

[2] = system: caspase-3 processing in rat liver mitochondria suspended in normal cytosolic extract; test: Mitochondria-dependent cell-free apoptosis (caspase-3 processing immunoblot); format: biochemical; settings: 100 μM peptide, 2 hours, in the presence of mitochondria
Experimental: The D(KLAKLAK)2 peptide was assayed for the ability to activate mitochondria-dependent apoptosis in a cell-free system composed of normal mitochondria suspended in normal cytosolic extract (Ellerby et al., J. Neurosci. 17:6165-6178 (1997)).
The cell-free apoptosis assays were performed essentially as follows. The cell-free systems were reconstituted as described in Ellerby et al., supra, 1997, and, for mitochondria-dependent reactions, rat liver mitochondria were suspended in normal (non-apoptotic) cytosolic extract prepared from dermal microvessel endothelial cells. After adding peptides at a concentration of 100 μM and incubating for 2 hours at 30° C. or 37° C., mitochondria were removed by centrifugation, and the supernatant analyzed by SDS/PAGE immunoblotting on a 12% gel (Biorad; Hercules, Calif.). Proteins were transferred to PVDF membranes (Biorad) and incubated with anti-caspase-3 antibody (Santa Cruz Biotechnology; Santa Cruz, Calif.), followed by ECL detection (Amersham; Arlington Heights, Ill.).

[3] = in vitro; format: cell-based; settings: human; monolayer at 100% confluency; scored at 72 hours; means of three independent experiments; read-out: LC50 DMEC Angiostatic
Experimental: (§1) The effect of HPP-1 was assayed on normal human dermal microvessel endothelial cells (DMECs) under the angiogenic conditions of proliferation and cord formation. In addition, the effect of HPP-1 was assayed under the angiostatic condition of a monolayer maintained at 100% confluency (as described below).
(§2) Briefly, dermal microvessel endothelial cells (DMECs) were grown in CADMEC Growth Media™ (Cell Applications, Inc.; San Diego, Calif.). Dermal microvessel endothelial cells were then cultured under three experimental conditions: proliferation, 30% confluency in a growth media supplemented with 500 ng/ml human recombinant vascular endothelial growth factor (VEGF; Pharmingen); no proliferation, 100% confluency in media formulated to maintain a monolayer; and cord formation, 60% confluency (required for induction) in media formulated to induce cord formation. The KS1767 and MDA-MB-435 cells were cultured as described in Arap et al., supra, 1998; Hernier et al., supra, 1994).
(§3) Percent viability and LC50 (Table 1) were determined by apoptotic morphology as described in Ellerby et al., J. Neurosci. 17:6165-6178 (1997). For the percent viability assays, dermal microvessel endothelial cells were treated with 60 μM HPP-1 or control peptide D(KLAKLAK)2. At the indicated time points, cell culture medium was aspirated from adherent cells, and the cells were gently washed once with PBS at 37° C. Subsequently, a 20-fold dilution of the dye mixture (100 μg/ml acridine orange and 100 μg/ml ethidium bromide) in PBS was gently pipetted on the cells, which were viewed on an inverted microscope (Nikon TE 300). […] At least 500 cells were scored for a given time point in each experiment. Percent viability was calculated relative to untreated controls. The LC50 for monolayer, proliferation ([…]), and cord formation were scored at 72 hours.

[4] = Cytotoxicity to eukaryotic cells (lethal concentration for 50% of a cell monolayer); format: cell-based; settings: human; lethal concentration required to kill 50% of a cell monolayer; read-out: concentration required to kill eukaryotic cells (LC50)
Experimental: (§4) Mild swelling was evident at a concentration of 3 μM, two orders of magnitude less than the concentration required to kill eukaryotic cells (approximately 300 μM), as measured by the lethal concentration required to kill 50% of a cell monolayer (LC50; Table 1).
as §3

[5] = system: rat liver mitochondria; test: Mitochondrial swelling assay (optical absorbance at 520 nm); format: biochemical
Experimental: Mitochondrial swelling assays were performed as follows. Briefly, rat liver mitochondria were prepared as described in Ellerby et al., J. Neurosci. 17:6165-6178 (1997). Peptides were synthesized at higher than 90% purity by HPLC (DLSLARLATARLAI (SEQ ID NO: 204), Coast Scientific, Inc., San Diego, Calif.; all other peptides, AnaSpec, Inc.). Mitochondria were treated with a concentration of 10 μM D(KLAKLAK)2, 10 μM DLSLARLATARLAI negative control peptide (SEQ ID NO: 204), or 200 μM CA^+2 as a positive control. Peptides were added to mitochondria in a cuvette, and swelling was quantified by measuring the optical absorbance at 520 nm.

[6] = system: normal human dermal microvessel endothelial cells (DMECs); format: cell-based; set-up: dose or concentration left out as unconfirmed; settings: proliferation or cord formation
[7] = system: breast carcinoma xenografts; test: Competition of phage homing by co-injected free peptide
[8] = system: eukaryotic cells; test: Cytotoxicity to eukaryotic cells (lethal concentration for 50% of a cell monolayer); format: cell-based
Experimental: as §4, §3

[9] = system: prostate cancer in TRAMP mice; test: Treatment of TRAMP mice (transgenic prostate cancer); format: in vivo; settings: 250 μg/dose; 10 mice per group
Experimental: TRAMP mice develop prostate cancer under the influence of a transgene as described in Gingrich et al., supra, 1996. SMSIARL-GG-D(KLAKLAK)2 chimeric peptide was assayed for the ability to suppress cancer development in the TRAMP mice. Treatment was initiated at 12 weeks of age with mice (10 per group) receiving SMSIARL-GG-D(KLAKLAK)2 peptide or control peptide at 250 μg/dose every other week for a total of 10 doses. Four mice, which had no visible tumor, were eliminated from the SMSIARL-GG-D(KLAKLAK)2 group after dying within minutes after the injection.

[10] = system: normal mouse prostate; test: Prostate-selective apoptosis (TUNEL staining); format: in vivo; settings: single dose of 250 μg peptide/mouse; 24 hours
Experimental: The ability of the SMSIARL peptide (SEQ ID NO: 207) to deliver a pro-apoptotic peptide, D(KLAKLAK)2, to the prostate was analyzed. Briefly, SMSIARL-GG-D(KLAKLAK)2 chimeric peptide or control material was administered as a single dose of 250 μg peptide/mouse, and TUNEL staining was performed on tissues obtained 24 hours later.

[11] = system: prostate; test: In vivo panning of X7 phage library, prostate versus brain; set-up: species or system mice; settings: phage displayed peptide
Experimental: An X7 library was injected into mice, and sequences isolated that were preferentially found in prostate as compared to brain as described in WO 99/46284.

[12] = system: bacteria; settings: Javadpour et al. 1996; cited from earlier work
[13] = system: normal human dermal microvessel endothelial cells (DMECs); test: in vitro; format: cell-based; settings: controls and alternative prototype; data not shown
Experimental: as §1, §2, §3

[14] = system: human 435 breast carcinoma tumor; test: In vivo targeting of RGD phage to breast tumor; set-up: species or system nude mice; settings: coinjection of 500 μg free peptide
Experimental: Human 435 breast carcinoma cells were inoculated into the mammary fat pad of nude mice. When the tumors attained a diameter of about 1 cm, phage expressing a specific RGD-containing peptide were administered to the tumor bearing mouse. Similar results to those discussed below also were obtained with nude mice bearing tumors formed by implantation of human melanoma C8161 cells or by implantation of mouse B16 melanoma cells.
1×10^9 phage expressing the RGD-containing peptide, […] (SEQ ID NO: 1; see, Koivunen et al., supra, 1995) or control (insertless) phage were injected intravenously (iv) into the mice and allowed to circulate for 4 min. The mice then were snap frozen or perfused through the heart while under anesthesia, and various organs, including tumor, brain and kidney, were removed and the phage present in the organs was quantitated (see U.S. Pat. No. 5,622,699; Pasqualini and Ruoslahti, supra, 1996).

[15] = system: prostate tissue; test: Prostate homing of SMSIARL phage after intravenous injection; format: in vivo, mice; settings: coinjection
From the text: Using in vivo screening of a heptapeptide phage library, a prostate-homing peptide has been identified that concentrates in the prostate 35-fold more than in various other tissues.

For `CC(C)C[C@@H](NC(=O)[C@H](N)CCCCN)C(=O)N[C@H](C)C(=O)N[C@H](CCCCN)C(=O)N[C@H](CC(C)C)C(=O)N[C@H](C)C(=O)N[C@H](CCCCN)C(=O)N[C@H](CCCCN)C(=O)N[C@H](CC(C)C)C(=O)N[C@H](C)C(=O)N[C@H](CCCCN)C(=O)N[C@H](CC(C)C)C(=O)N[C@H](C)C(=O)N[C@H](CCCCN)C(=O)O` [D(KLAKLAK)2], the mitochondrial morphology [1] was “remained morphologically normal”, the “caspase-3 processing in cell-free system” value [2] was “characteristic caspase-3 processing the active protease was observed” and the CC50 at 72 h [3] was 492 µM. For the same molecule, the CC50 at 72 h [4] was ~300 µM, the mitochondrial swelling ([5]; 3 μM peptide) was “Mild swelling” and the mitochondrial swelling ([5]; 10 μM peptide) was “marked mitochondrial swelling”. For the same molecule, the “percent viability with time relative to untreated controls” value [6] was “negligible loss in viability”.
In the case of “CNGRC (not fully specified; cysteine pairing not given here)”, the “effect of co-injected peptide on homing of […] phage” value [7] was “did not inhibit” and the “effect of co-injected peptide on accumulation of NGR phage in tumor” value ([7]; phage expressing CNGRCVSGCAGRC) was “inhibited”.
For “DLSLARLATARLAI [non-α-helix forming negative control peptide]”, the “caspase-3 processing in cell-free system” value [2] was “inactive”, the “lethality to eukaryotic cells” value [8] was “not lethal” and the mitochondrial swelling ([5]; 10 μM peptide) was “did not induce mitochondrial swelling”.
For `CC[C@H](C)[C@H](NC(=O)[C@H](CO)NC(=O)[C@H](CCSC)NC(=O)[C@@H](N)CO)C(=O)N[C@@H](C)C(=O)N[C@@H](CCCNC(=N)N)C(=O)N[C@@H](CC(C)C)C(=O)NCC(=O)NCC(=O)N[C@H](CCCCN)C(=O)N[C@H](CC(C)C)C(=O)N[C@H](C)C(=O)N[C@H](CCCCN)C(=O)N[C@H](CC(C)C)C(=O)N[C@H](C)C(=O)N[C@H](CCCCN)C(=O)N[C@H](CCCCN)C(=O)N[C@H](CC(C)C)C(=O)N[C@H](C)C(=O)N[C@H](CCCCN)C(=O)N[C@H](CC(C)C)C(=O)N[C@H](C)C(=O)N[C@H](CCCCN)C(=O)O` [SMSIARL-GG-D(KLAKLAK)2] (H-SMSIARLGG[dK][dL][dA][dK][dL][dA][dK][dK][dL][dA][dK][dL][dA][dK]-OH), the “mice dying within minutes after the injection” value [9] was “Four” and the “apoptosis in other tissues such as testis, kidney or brain (TUNEL)” value [10] was “no evidence of increased apoptosis”.
In the case of VSFLEYR [prostate homing peptide], the “enrichment in prostate as compared to brain” value [11] was 17 fold.
In the case of “KLAKLAKKLAKLAK [synthetic antimicrobial 14-mer of Javadpour et al]”, the “concentration that kills bacteria relative to concentration required to kill eukaryotic cells” value [12] is listed as “two orders of magnitude lower”.
For “CARAC-GG-D(KLAKLAK)2 [reference compound]”, the “effect on viability of dermal microvessel endothelial cells, compared with other peptide” value [13] was “results similar to D(KLAKLAK) 2”.
With GRGESP the “reduction of phage in the tumor by coinjected free peptide” value [14] was “essentially had no effect”.
In the case of SMSIARL [prostate homing peptide], the “enrichment in prostate as compared to brain” value [11] was 34 fold and the “effect of coinjected synthetic peptide on prostate-selective phage homing” value [15] was “inhibited the prostate-selective homing of phage”.
In the case of “CGRNC-GG-D(KLAKLAK)2 [reference compound]”, the “effect on viability of dermal microvessel endothelial cells, compared with other peptide” value [13] was “results similar to D(KLAKLAK) 2”.
